From patent publication US11530221B2, “Pyrimido[4,5-d]pyrimidin-2-one derivatives as protein kinase inhibitors” (KOREA INSTITUTE OF SCIENCE AND TECHNOLOGY, priority 2019, dated 2022)
Read-outs that look alike come from different tables or passages of the source. Square brackets hold non-standard residues; d marks the D form. Peptide text beside a SMILES is read from it. * marks the point of attachment. X1 = Cc1ccc(Nc2ncc3c(n2)N(C)C(=O)N(c2cc(C(=O)*)ccc2C)C3)cn1; Ac3c = NC1(C(=O)O)CC1; Aib = CC(C)(N)C(=O)O

Columns and labels:
[1] = biological target: LCK (Homo sapiens, UniProt P06239); assay: IC50 inhibitory activity against LCK kinase; format: biochemical
Sequence of LCK (P06239 whole entry): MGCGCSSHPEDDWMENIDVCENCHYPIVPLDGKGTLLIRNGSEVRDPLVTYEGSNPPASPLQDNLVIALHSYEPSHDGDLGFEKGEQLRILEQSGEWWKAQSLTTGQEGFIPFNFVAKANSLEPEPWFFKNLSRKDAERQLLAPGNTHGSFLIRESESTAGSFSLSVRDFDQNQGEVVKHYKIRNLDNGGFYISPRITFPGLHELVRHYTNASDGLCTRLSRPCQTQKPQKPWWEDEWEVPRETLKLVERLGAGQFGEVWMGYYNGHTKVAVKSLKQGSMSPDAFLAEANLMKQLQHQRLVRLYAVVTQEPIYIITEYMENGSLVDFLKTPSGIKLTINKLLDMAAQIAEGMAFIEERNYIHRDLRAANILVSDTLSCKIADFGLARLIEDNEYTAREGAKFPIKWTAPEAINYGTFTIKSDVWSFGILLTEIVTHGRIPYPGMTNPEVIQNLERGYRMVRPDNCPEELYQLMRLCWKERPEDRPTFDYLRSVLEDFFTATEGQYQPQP
Method: (§1) IC50 values were calculated by measuring the inhibitory activity against LCK, c-Src, p38a/MAPK14, ABL1, DDR1 and FGR kinases of the compounds of the present invention.

[2] = biological target: c-Src (Homo sapiens, UniProt P12931); assay: IC50 inhibitory activity against c-Src kinase; format: biochemical
Sequence of c-Src (P12931 whole entry): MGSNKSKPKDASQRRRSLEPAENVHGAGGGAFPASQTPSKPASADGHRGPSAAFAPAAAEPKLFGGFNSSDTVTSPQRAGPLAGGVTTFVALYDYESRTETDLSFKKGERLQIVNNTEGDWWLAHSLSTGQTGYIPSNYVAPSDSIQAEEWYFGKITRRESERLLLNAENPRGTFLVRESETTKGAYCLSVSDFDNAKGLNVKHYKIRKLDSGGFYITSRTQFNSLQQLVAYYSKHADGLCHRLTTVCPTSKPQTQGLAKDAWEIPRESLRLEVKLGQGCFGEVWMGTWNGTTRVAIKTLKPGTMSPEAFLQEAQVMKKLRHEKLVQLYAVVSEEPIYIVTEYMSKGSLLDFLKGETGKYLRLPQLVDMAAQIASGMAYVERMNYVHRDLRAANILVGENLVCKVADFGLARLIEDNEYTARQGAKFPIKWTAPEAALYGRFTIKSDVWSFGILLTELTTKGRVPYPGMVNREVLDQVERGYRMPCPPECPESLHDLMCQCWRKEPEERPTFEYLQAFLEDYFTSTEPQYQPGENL
Method: as §1

Cc1ccc(Nc2ncc3c(n2)N(C)C(=O)N(c2cc(C(=O)N[C@@H](C)C(=O)N4CCC[C@H]4C(=O)NC(C)(C)C(=O)N[C@H](C(=O)N(C)C)C(C)C)ccc2C)C3)cn1 [Example 25, (S)—N-(1-(((S)-1-(dimethylamino)-3-methyl-1-oxobutan-2-yl)amino)-2-methyl-1-oxopropan-2-yl)-1-((4-methyl-3-(1-methyl-7-((6-methylpyridin-3-yl)amino)-2-oxo-1,4-dihydropyrimido[4,5-d]pyrimidin-3(2H)-yl)benzoyl)-L-alanyl)pyrrolidine-2-carboxamide] (X1-AP[Aib]V-NMe2)
IC50 [1]: 200 to 400 nM
IC50 [2]: > 600 nM

Cc1ccc(Nc2ncc3c(n2)N(C)C(=O)N(c2cc(C(=O)N[C@H](C(=O)N4CCC[C@H]4C(=O)NCC(=O)N[C@@H](CC(C)C)C(=O)N(C)C)C(C)C)ccc2C)C3)cn1 [Example 6, (S)—N-(2-(((S)-1-(dimethylamino)-4-methyl-1-oxopentan-2-yl)amino)-2-oxoethyl)-1-((4-methyl-3-(1-methyl-7-((6-methylpyridin-3-yl)amino)-2-oxo-1,4-dihydropyrimido[4,5-d]pyrimidin-3(2H)-yl)benzoyl)-L-valyl)pyrrolidine-2-carboxamide] (X1-VPGL-NMe2)
IC50 [1]: 1 to 200 nM
IC50 [2]: > 600 nM

Cc1ccc(Nc2ncc3c(n2)N(C)C(=O)N(c2cc(C(=O)N[C@@H](C(=O)N4CCC[C@@H]4C(=O)NC(C)(C)C(=O)N[C@H](CC(C)C)C(=O)N(C)C)C(C)C)ccc2C)C3)cn1 [Example 10, (R)—N-(1-(((R)-1-(dimethylamino)-4-methyl-1-oxopentan-2-yl)amino)-2-methyl-1-oxopropan-2-yl)-1-((4-methyl-3-(1-methyl-7-((6-methylpyridin-3-yl)amino)-2-oxo-1,4-dihydropyrimido[4,5-d]pyrimidin-3(2H)-yl)benzoyl)-D-valyl)pyrrolidine-2-carboxamide] (X1-[dV][dP][Aib][dL]-NMe2)
IC50 [1]: 200 to 400 nM
IC50 [2]: > 600 nM

Cc1ccc(Nc2ncc3c(n2)N(C)C(=O)N(c2cc(NC(=O)c4ccc5c(c4)NC(=O)[C@H](Cc4ccc(F)cc4)N=C5c4ccccc4)ccc2C)C3)cn1 [Example 28, (S)-3-(4-fluorobenzyl)-N-(4-methyl-3-(1-methyl-7-((6-methylpyridin-3-yl)amino)-2-oxo-1,4-dihydropyrimido[4,5-d]pyrimidin-3(2H)-yl)phenyl)-2-oxo-5-phenyl-2,3-dihydro-1H-benzo[e][1,4]diazepine-8-carboxamide]
IC50 ([1]; read-out: LCK IC50): 1 to 200 nM
IC50 ([2]; read-out: c-Src IC50): 1 to 200 nM

Cc1ccc(Nc2ncc3c(n2)N(C)C(=O)N(c2cc(C(=O)N[C@H](C(=O)N4CCC[C@@H]4C(=O)N[C@H](C(=O)N[C@H](C)c4ccccc4)C(C)C)C(C)C)ccc2C)C3)cn1 [Example 8, (R)—N—((S)-3-methyl-1-oxo-1-(((R)-1-phenylethyl)amino)butan-2-yl)-1-((4-methyl-3-(1-methyl-7-((6-methylpyridin-3-yl)amino)-2-oxo-1,4-dihydropyrimido[4,5-d]pyrimidin-3(2H)-yl)benzoyl)-L-valyl)pyrrolidine-2-carboxamide]
IC50 ([1]; read-out: LCK IC50): 400 to 600 nM
IC50 ([2]; read-out: c-Src IC50): > 600 nM

C=CCCC1=N[C@@H](CC(=O)Nc2ccc(C)c(N3Cc4cnc(Nc5ccc(C)nc5)nc4N(C)C3=O)c2)C(=O)N(Cc2ccccc2)c2ccccc21 [Example 46, (S)-2-(1-benzyl-5-(but-3-en-1-yl)-2-oxo-2,3-dihydro-1H-benzo[e][1,4]diazepin-3-yl)-N-(4-methyl-3-(1-methyl-7-((6-methylpyridin-3-yl)amino)-2-oxo-1,4-dihydropyrimido[4,5-d]pyrimidin-3(2H)-yl)phenyl)acetamide]
IC50 ([1]; read-out: LCK IC50): 1 to 200 nM
IC50 ([2]; read-out: c-Src IC50): 1 to 200 nM

Cc1ccc(Nc2ncc3c(n2)N(C)C(=O)N(c2cc(C(=O)N[C@H](C(=O)N4CCC[C@H]4C(=O)N[C@H](C(=O)N[C@H](C)c4ccccc4)C(C)C)C(C)C)ccc2C)C3)cn1 [Example 9, (S)—N—((S)-3-methyl-1-oxo-1-(((R)-1-phenylethyl)amino)butan-2-yl)-1-((4-methyl-3-(1-methyl-7-((6-methylpyridin-3-yl)amino)-2-oxo-1,4-dihydropyrimido[4,5-d]pyrimidin-3(2H)-yl)benzoyl)-L-valyl)pyrrolidine-2-carboxamide]
IC50 ([1]; read-out: LCK IC50): 1 to 200 nM
IC50 ([2]; read-out: c-Src IC50): > 600 nM

Cc1ccc(Nc2ncc3c(n2)N(C)C(=O)N(c2cc(C(=O)N[C@H](C(=O)N4CCC[C@H]4C(=O)N[C@@H](Cc4ccccc4)C(=O)N[C@@H](CC(C)C)C(=O)N(C)C)C(C)C)ccc2C)C3)cn1 [Example 11] (X1-VPFL-NMe2)
IC50 ([1]; read-out: LCK IC50): 1 to 200 nM
IC50 ([2]; read-out: c-Src IC50): 1 to 200 nM

Cc1ccc(Nc2ncc3c(n2)N(C)C(=O)N(c2cc(NC(=O)c4ccc5c(c4)N(CC(C)C)C(=O)[C@H](CC(C)C)N=C5c4ccccc4)ccc2C)C3)cn1 [Example 39, (S)-1,3-diisobutyl-N-(4-methyl-3-(1-methyl-7-((6-methylpyridin-3-yl)amino)-2-oxo-1,4-dihydropyrimido[4,5-d]pyrimidin-3(2H)-yl)phenyl)-2-oxo-5-phenyl-2,3-dihydro-1H-benzo[e][1,4]diazepine-8-carboxamide]
IC50 ([1]; read-out: LCK IC50): 1 to 200 nM
IC50 ([2]; read-out: c-Src IC50): 400 to 600 nM

Cc1ccc(Nc2ncc3c(n2)N(C)C(=O)N(c2cc(C(=O)N[C@H](C(=O)N4CCC[C@H]4C(=O)NC(C)(C)C(=O)NCC(=O)N(C)C)C(C)C)ccc2C)C3)cn1 [Example 14, (S)—N-(1-((2-(dimethylamino)-2-oxoethyl)amino)-2-methyl-1-oxopropan-2-yl)-1-((4-methyl-3-(1-methyl-7-((6-methylpyridin-3-yl)amino)-2-oxo-1,4-dihydropyrimido[4,5-d]pyrimidin-3(2H)-yl)benzoyl)-L-valyl)pyrrolidine-2-carboxamide] (X1-VP[Aib]G-NMe2)
IC50 [1]: 1 to 200 nM
IC50 [2]: > 600 nM

CC1=N[C@@H](CC(C)C)C(=O)N(C)c2cc(C(=O)Nc3ccc(C)c(N4Cc5cnc(Nc6ccc(C)nc6)nc5N(C)C4=O)c3)ccc21 [Example 40, (S)-3-isobutyl-1,5-dimethyl-N-(4-methyl-3-(1-methyl-7-((6-methylpyridin-3-yl)amino)-2-oxo-1,4-dihydropyrimido[4,5-d]pyrimidin-3(2H)-yl)phenyl)-2-oxo-2,3-dihydro-1H-benzo[e][1,4]diazepine-8-carboxamide]
IC50 ([1]; read-out: LCK IC50): 1 to 200 nM
IC50 ([2]; read-out: c-Src IC50): 1 to 200 nM

COCCN1C(=O)[C@H](CC(C)C)N=C(c2ccccc2)c2ccc(C(=O)Nc3ccc(C)c(N4Cc5cnc(Nc6ccc(C)nc6)nc5N(C)C4=O)c3)cc21 [Example 42, (S)-3-isobutyl-1-(2-methoxyethyl)-N-(4-methyl-3-(1-methyl-7-((6-methylpyridin-3-yl)amino)-2-oxo-1,4-dihydropyrimido[4,5-d]pyrimidin-3(2H)-yl)phenyl)-2-oxo-5-phenyl-2,3-dihydro-1H-benzo[e][1,4]diazepine-8-carboxamide]
IC50 ([1]; read-out: LCK IC50): 1 to 200 nM
IC50 ([2]; read-out: c-Src IC50): 1 to 200 nM

Cc1ccc(Nc2ncc3c(n2)N(C)C(=O)N(c2cc(C(=O)N[C@H](C(=O)N4CCC[C@@H]4C(=O)NC4(C(=O)N[C@@H](CC(C)C)C(=O)N(C)C)CC4)C(C)C)ccc2C)C3)cn1 [Example 3, (R)—N-(1-(((S)-1-(dimethylamino)-4-methyl-1-oxopentan-2-yl)carbamoyl)cyclopropyl)-1-((4-methyl-3-(1-methyl-7-((6-methylpyridin-3-yl)amino)-2-oxo-1,4-dihydropyrimido[4,5-d]pyrimidin-3(2H)-yl)benzoyl)-L-valyl)pyrrolidine-2-carboxamide] (X1-V[dP][Ac3c]L-NMe2)
IC50 [1]: 1 to 200 nM
IC50 [2]: > 600 nM
